Source: PMC6151589, “Identification of Optically Active Pyrimidine Derivatives as Selective 5-HT2C Modulators” (Molecules : A Journal of Synthetic Chemistry and Natural …, 2017)

How the values were obtained:
[1] = target: T1, 5-HT2A (Homo sapiens, UniProt P28223); experiment: radioligand displacement, membranes; type: binding
T1 construct: gene HTR2A; human recombinant receptor; crude membrane fractions of transfected HEK293 or CHO cells
Text: radioligand displacement, membranes on 5-HT2A

[2] = target: T2, 5-HT1D (Homo sapiens, UniProt P28221); experiment: biochemical; parameters: species or system HEK293 or CHO; competitive radioligand binding on crude membranes, filtration and scintillation counting
T2 construct: gene HTR1D; human recombinant receptor, crude membranes of HEK293 or CHO cells
T2 sequence (P28221 whole entry): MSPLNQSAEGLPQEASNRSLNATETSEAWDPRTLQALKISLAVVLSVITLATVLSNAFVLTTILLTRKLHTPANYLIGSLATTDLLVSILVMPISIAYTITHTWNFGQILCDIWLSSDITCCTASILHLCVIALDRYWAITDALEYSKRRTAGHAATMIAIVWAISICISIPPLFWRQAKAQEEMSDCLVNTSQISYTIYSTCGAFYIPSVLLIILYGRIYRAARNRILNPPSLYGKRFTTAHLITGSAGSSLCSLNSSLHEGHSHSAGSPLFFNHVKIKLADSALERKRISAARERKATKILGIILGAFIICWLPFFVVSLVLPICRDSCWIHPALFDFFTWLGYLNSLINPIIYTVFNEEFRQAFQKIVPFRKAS
Procedure: (§1) Eleven dilutions (5 × assay concentration) of the test and reference compounds (Table S1) were prepared in standard binding buffer (50 mM tris(hydroxymethyl)-aminomethane-HCl (Tris-HCl), 10 mM MgCl2, 1 mM ethylenediaminetetraacetate (EDTA), pH 7.4) by serial dilution: 0.05 nM, 0.5 nM, 1.5 nM, 5 nM, 15 nM, 50 nM, 150 nM, 500 nM, 1.5 μM, 5 μM, and 50 μM. The radioligand (Table S3) was diluted to five times the assay concentration in standard binding buffer. Aliquots ([…]) of the radioligand were dispensed into the wells of a 96-well plate containing […] of standard binding buffer. Triplicate aliquots ([…]) of the test and reference compound dilutions were then added. Finally, crude membrane fractions ([…]) of cells (HEK293 or CHO) expressing human recombinant receptors were dispensed into each well. A total of […] of the reaction mixtures was incubated at room temperature and shielded from light for 1.5 h, and was then harvested by rapid filtration onto Whatman GF/B glass fiber filters presoaked with 0.3% polyethyleneimine, by using a 96-well Brandel harvester (Gaithersburg, MD, USA). Four rapid washes were performed with chilled standard binding buffer (500 mL) to decrease nonspecific binding. Filters were placed in 6 mL scintillation tubes and allowed to dry overnight. The next day, 4-mL of EcoScint scintillation cocktail (National Diagnostics) was added to each tube. The tubes were capped, labeled, and counted by […] scintillation counting. The filter mats were dried, and the scintillant was melted onto the filters, then the radioactivity retained on the filters was counted in a Microbeta scintillation counter. The IC50 values were obtained by using the Prism 4.0 program (GraphPad Software, La Jolla, CA, USA) and were converted into Ki values. Each compound was tested at least in triplicate. With each enantiomer (R)- or (S)-5d and 5e in hand, the optically active pyrimidine derivatives 4d–4e were synthesized following the same reaction sequences (Scheme 3). Finally, compounds 4d and 4e were assessed for their binding affinity to 5-HT2 receptor subtypes by radioligand binding assays. […] A further evaluation of these compounds for other 5-HT receptor subtypes was also performed and is provided in the supplementary data (Table S2). […] Considering the potencies and selectivities of 4, we can conclude that (R,R)-4e would be a viable candidate for a selective 5-HT2C modulator.

[3] = target: T3, 5-HT1B (Homo sapiens, UniProt P28222); experiment: biochemical; parameters: species or system HEK293 or CHO; competitive radioligand binding on crude membranes, filtration and scintillation counting
T3 construct: gene HTR1B; human recombinant receptor, crude membranes of HEK293 or CHO cells
T3 sequence (P28222 whole entry): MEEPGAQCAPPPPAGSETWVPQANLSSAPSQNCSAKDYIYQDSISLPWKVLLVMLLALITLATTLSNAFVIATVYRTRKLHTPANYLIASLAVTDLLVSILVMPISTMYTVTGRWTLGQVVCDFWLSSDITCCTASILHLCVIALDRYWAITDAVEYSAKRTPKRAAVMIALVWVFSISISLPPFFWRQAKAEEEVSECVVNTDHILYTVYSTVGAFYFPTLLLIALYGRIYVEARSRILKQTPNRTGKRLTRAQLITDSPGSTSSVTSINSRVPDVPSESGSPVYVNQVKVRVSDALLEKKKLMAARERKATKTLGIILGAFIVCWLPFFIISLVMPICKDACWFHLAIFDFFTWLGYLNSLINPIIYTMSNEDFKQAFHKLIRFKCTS
Procedure: as §1

[4] = target: T4, 5-HT2C (Homo sapiens, UniProt P28335); experiment: biochemical; parameters: species or system HEK293 or CHO; competitive radioligand binding on crude membranes, filtration and scintillation counting
T4 construct: gene HTR2C; human recombinant receptor; crude membrane fractions of transfected cells (CHO-K1; HEK293 or CHO)
T4 sequence (P28335 33-458): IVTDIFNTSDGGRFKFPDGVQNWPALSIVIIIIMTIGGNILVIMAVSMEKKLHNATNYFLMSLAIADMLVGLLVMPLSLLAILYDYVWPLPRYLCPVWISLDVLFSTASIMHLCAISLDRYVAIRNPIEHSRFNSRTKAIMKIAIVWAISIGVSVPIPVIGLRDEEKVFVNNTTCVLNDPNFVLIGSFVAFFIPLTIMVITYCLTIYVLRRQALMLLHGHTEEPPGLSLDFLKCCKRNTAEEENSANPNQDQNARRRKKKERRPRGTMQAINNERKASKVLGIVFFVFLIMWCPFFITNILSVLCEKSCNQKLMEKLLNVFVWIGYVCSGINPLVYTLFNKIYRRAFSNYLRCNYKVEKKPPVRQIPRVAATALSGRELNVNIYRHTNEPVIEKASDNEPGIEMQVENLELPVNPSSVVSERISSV
Procedure: as §1

[5] = target: T5, 5-HT6 (Homo sapiens, UniProt P50406); experiment: biochemical; parameters: species or system HEK293 or CHO; competitive radioligand binding on crude membranes, filtration and scintillation counting; details: for Ki: read-out: Ki (nM), 6
T5 construct: gene HTR6; human recombinant receptor, crude membranes of HEK293 or CHO cells
T5 sequence (P50406 whole entry): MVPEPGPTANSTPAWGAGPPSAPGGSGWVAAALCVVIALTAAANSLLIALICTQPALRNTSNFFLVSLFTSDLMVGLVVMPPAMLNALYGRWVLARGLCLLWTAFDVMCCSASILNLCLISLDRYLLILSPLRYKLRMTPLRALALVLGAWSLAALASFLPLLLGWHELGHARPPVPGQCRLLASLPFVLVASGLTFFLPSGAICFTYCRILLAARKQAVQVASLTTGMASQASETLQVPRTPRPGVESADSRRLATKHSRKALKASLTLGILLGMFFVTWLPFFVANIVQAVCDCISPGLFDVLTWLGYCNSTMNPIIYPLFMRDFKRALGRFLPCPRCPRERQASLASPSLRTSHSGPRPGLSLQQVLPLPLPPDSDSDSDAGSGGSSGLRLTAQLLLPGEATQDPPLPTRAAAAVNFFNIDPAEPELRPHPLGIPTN
Procedure: as §1

[6] = target: T6, 5-HT1E (Homo sapiens, UniProt P28566); experiment: biochemical; parameters: species or system HEK293 or CHO; competitive radioligand binding on crude membranes, filtration and scintillation counting; details: for Ki: read-out: Ki (nM), 1E
T6 construct: gene HTR1E; human recombinant receptor, crude membranes of HEK293 or CHO cells
T6 sequence (P28566 whole entry): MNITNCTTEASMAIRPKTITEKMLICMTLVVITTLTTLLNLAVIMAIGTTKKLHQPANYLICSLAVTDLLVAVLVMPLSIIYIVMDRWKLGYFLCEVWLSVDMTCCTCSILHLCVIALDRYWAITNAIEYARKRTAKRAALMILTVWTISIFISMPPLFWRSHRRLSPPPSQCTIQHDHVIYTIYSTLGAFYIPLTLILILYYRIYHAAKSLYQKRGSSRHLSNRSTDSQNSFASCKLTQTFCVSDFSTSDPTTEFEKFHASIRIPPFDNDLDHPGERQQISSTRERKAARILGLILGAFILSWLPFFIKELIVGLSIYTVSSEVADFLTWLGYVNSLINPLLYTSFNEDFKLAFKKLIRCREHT
Procedure: as §1

[7] = target: T4, 5-HT2C; experiment: [3H]mesulergine displacement, membranes; type: binding; details: pH […] MgCl2, room temperature; reference compound, may stem from the authors' earlier study (ref […])
Text: [3H]mesulergine displacement, membranes on 5-HT2C

T1 sequence (P28223 whole entry): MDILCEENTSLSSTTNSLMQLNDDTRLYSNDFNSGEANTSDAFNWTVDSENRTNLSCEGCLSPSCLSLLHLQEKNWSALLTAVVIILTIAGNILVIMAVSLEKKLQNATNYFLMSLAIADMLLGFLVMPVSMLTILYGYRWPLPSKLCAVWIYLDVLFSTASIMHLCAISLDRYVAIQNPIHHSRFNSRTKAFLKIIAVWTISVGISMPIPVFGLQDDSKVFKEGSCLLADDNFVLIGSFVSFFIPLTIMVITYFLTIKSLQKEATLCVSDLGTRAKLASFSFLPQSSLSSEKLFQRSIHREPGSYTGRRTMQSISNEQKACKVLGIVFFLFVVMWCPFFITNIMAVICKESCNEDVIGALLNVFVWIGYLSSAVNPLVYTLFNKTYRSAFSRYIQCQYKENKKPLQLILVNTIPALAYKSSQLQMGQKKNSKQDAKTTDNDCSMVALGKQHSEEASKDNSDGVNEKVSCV

SMILES	Ki [1] [nM]	inhibition at 10 µM [2] [%]	inhibition at 10 µM [3] [%]	inhibition at 10 µM [4] [%]	inhibition at 10 µM [5] [%]	Ki [5] [nM]	inhibition at 10 µM [6] [%]	5-HT2A / %Binding ([1]; pH 7.4, 10 mM MgCl2, room temperature, single concentration, 10 μM) [%]	Ki [7] [nM]	Ki ([2]; read-out: Ki (nM), 1D) [nM]	Ki ([3]; read-out: Ki (nM), 1B) [nM]	Ki [6] [nM]
C[C@H](Oc1nc(N2CCNC[C@H]2C)ncc1F)c1ccc(F)cc1 [(S,R)-4e, 5-Fluoro-4-((S)-1-(4-fluorophenyl)ethoxy)-2-((R)-2-methylpiperazin-1-yl)pyrimidine]	1020	40.4	17.9	97.8	86.1	116						
C[C@H](Oc1nc(N2CCNC[C@H]2C)ncc1F)c1cccc(F)c1 [(S,R)-4d, 5-Fluoro-4-((S)-1-(3-fluorophenyl)ethoxy)-2-((R)-2-methylpiperazin-1-yl)pyrimidine]	475	10.3	3	97.7	91.6	70	29.5					
C[C@@H]1CNCCN1c1ncc(F)c(O[C@H](C)c2ccc(F)cc2)n1 [(R,R)-4e, 5-Fluoro-4-((R)-1-(4-fluorophenyl)ethoxy)-2-((R)-2-methylpiperazin-1-yl)pyrimidine]		-7.7	6.4	94.2	97.4	17	42.7	0.9				
C[C@H](Cc1cccc(F)c1)Oc1nc(N2CCNC[C@H]2C)ncc1F [compound 3, pyrimidine analogue 3]	128	78.3	55.1	98.2	93.8	43	65.6		0.7	542	1780	1160
C[C@@H]1CNCCN1c1ncc(F)c(O[C@H](C)c2cccc(F)c2)n1 [(R,R)-4d, 5-Fluoro-4-((R)-1-(3-fluorophenyl)ethoxy)-2-((R)-2-methylpiperazin-1-yl)pyrimidine]	222	-6.8	27.7	98.5	95.7	57	67.5					1160
